# Experiment: Individual Typologic Angle change on synthetic skin for 2.5% DHA plus adjuvant in citric acid/citrate buffer solution
# Settings: adjuvant at molar equivalent of 1% glycine; for ΔITA ° after 2 hours: pH about 5.5, 2 hours; for ΔITA ° after 4 hours: pH about 5.5, 4 hours
# Description: The synthetic skin was pre-hydrated at 95% RH for 24 hours and then treated with portions of the samples at a dosage of 5 μL/cm^2. The treated synthetic skin was then stored at 35° C. and 40% RH for periods up to 24 hours. […]
# Formulations in Table IV containing 2.5% DHA and the molar equivalent of 1% glycine as adjuvant in a citric acid/citrate buffer solution were prepared. The formulations were adjusted to a pH of about 5.5 to mimic the formulation pH after application to human skin.
# Individual Typologic Angle results were obtained in a manner similar to the one described in Example 1.
SMILES,ΔITA ° after 2 hours,ΔITA ° after 4 hours
"CC(N)CN (stereo not shown) [1,2-diamino propane]",17 ± 2 °,32 ± 3 °
"NCCCCN [1,4-diamino butane]",4 ± 2 °,12 ± 4 °
"CN(C)CCN [N,N-dimethyl ethylene diamine]",4 ± 2 °,8 ± 2 °
NCCN [Ethylene diamine],16 ± 2 °,32 ± 3 °
"NCCCN [1,3-diamino propane]",6 ± 3 °,16 ± 4 °
NCC(=O)O [Glycine],2 ± 1 °,7 ± 2 °
"NC1C(O)OC(CO)C(O)C1N (stereo not shown) [3,4-diamino-6-hydroxymethyl-tetrahydro-pyrane 2,5-diol]",15 ± 3 °,23 ± 2 °
"NC1CCCCC1N (stereo not shown) [1,2-diamino cyclohexane]",20 ± 3 °,35 ± 3 °

# — patent US8821839B2, “Compositions and methods for imparting a sunless tan with a vicinal diamine” (Conopco, Inc., priority 2010, dated 2014)
